The target of one data set is T1, Aldh1a2 (Homo sapiens, UniProt O94788).
T1 construct: expressed in transfected cells; host or cells: 293T, transient transfection
T1 sequence (O94788 1-518): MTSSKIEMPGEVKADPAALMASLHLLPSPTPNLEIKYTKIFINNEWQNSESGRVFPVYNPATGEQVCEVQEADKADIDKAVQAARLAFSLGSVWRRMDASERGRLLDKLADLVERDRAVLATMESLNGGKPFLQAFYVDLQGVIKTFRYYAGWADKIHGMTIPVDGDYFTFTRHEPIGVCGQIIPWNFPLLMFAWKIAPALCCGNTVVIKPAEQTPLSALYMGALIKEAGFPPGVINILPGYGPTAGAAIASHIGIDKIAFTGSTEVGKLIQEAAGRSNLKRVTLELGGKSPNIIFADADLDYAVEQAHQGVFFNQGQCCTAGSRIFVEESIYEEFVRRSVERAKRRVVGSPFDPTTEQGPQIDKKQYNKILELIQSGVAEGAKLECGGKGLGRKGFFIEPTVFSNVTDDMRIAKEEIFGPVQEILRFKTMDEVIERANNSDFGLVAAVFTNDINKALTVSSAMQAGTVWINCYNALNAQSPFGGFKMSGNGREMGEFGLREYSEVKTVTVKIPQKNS
Description: ALDEFLUOR assay in 293T cells transiently transfected with human Aldh1a2. The class given is cell-based. The following applies: concentrations below 10 μM. On the procedure: (§1) The coding sequences of Aldh1a1, Aldh1a2, Aldh1a3 and Aldh3a1 were cloned from cDNA made from pooled human reference RNA samples. Cloned sequences flanked by Age1 and Xho1 restriction sites were inserted into the pLex lentiviral plasmid. Clones were sequenced and compared against NCBI expressed sequence tags (ESTs) for accuracy. Viral production of each enzyme was performed by transfection into the 293T packaging cell line using PEI along with PsPax2 and VSVG packaging vectors. Viruses were collected and filtered at 0.45 μm, then cells were transduced using polybrene (8 μg/mL) for 12 hours, followed by culture with 1 μg/mL puromycin for the duration of experiments. All viral transduction and selection was performed on a cell population-wide basis.
(§2) Cells were counted, centrifuged and resuspended at 1,000,000 cells/mL in ALDEFLUOR™ buffer (Stemcell Technologies). ALDEFLUOR™ substrate (Stemcell Technologies, 1:200) and test compound or 1 mM DEAB were added to cell suspension and incubated at 37° C. for 45 minutes with vortexing every 15 minutes. Cells were centrifuged and resuspended in ALDEFLUOR™ buffer with DAPI at 5 μg/mL. Samples were analyzed with the BD LSR2 flow cytometry platform. Gating was performed using DEAB as a negative control.

The target in the next data set is T2, ALDH1a3 (Homo sapiens, UniProt P47895).
T2 construct: lentiviral vectors containing either the vector backbone or full-length human Aldh1a3; expressed in transfected cells; host or cells: SUM159-M1a (A1) and SUM159 (A7) breast cancer cells, lentiviral pLex vector, puromycin selection
T2 sequence (P47895 1-512): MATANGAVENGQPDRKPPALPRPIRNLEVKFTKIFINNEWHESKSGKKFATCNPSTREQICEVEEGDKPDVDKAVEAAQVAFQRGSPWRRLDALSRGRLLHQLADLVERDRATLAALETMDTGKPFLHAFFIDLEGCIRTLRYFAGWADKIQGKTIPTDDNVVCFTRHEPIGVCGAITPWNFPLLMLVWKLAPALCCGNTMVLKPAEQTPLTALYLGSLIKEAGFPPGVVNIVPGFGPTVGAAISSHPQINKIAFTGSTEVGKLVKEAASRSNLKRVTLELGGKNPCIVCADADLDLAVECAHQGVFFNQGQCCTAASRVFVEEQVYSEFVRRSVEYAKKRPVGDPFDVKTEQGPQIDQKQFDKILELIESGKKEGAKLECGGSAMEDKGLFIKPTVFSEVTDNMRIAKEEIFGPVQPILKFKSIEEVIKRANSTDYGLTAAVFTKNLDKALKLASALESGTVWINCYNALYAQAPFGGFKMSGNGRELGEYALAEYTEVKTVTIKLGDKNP
Description: ALDEFLUOR assay in SUM159 cells expressing ALDH isoforms 1a1, 1a2, 1a3, 3a1. Format: cell-based. Particulars: SUM159 cells expressing ALDH 1a1, 1a2, 1a3 or 3a1. On the procedure:
as §1, §2
ALDH isoforms 1a1, 1a2, 1a3 and 3a1 were expressed in MCF7 or SUM159 cells, which were subsequently used in an ALDEFLUOR™ assay.

A further data set concerns SUM159-M1-p44 cells. Put plainly: Lung metastasis xenograft, SUM159-M1-p44 cells by tail-vein injection, BLI. Format: in vivo, mouse. Particulars: three doses of 50 mg/kg in combination with 25 mg/kg paclitaxel, days 17, 19 and 21. On the procedure: In another xenograft experiment, mice were injected with SUM159-M1-p44 cells via tail-vein injection, as described above, and randomized following injection. Metastatic burden was imaged on day 16 via intravital imaging. Mice were then treated with paclitaxel (25 mg/kg) and either vehicle or MBE1.5 (50 mg/kg) on days 17, 19 and 21. Lung metastatic burden was then imaged on day 22. Signals were normalized to day 16.

Data set [1] is described as follows: Toxicity experiments in C57Bl6 mice (IP). Format: in vivo. On the procedure: All mice were originally ordered from the Jackson Laboratory (Bar Harbor, ME) and breeding was conducted in a specific pathogen-free (SPF) barrier facility. Toxicity experiments were performed on 8-12-week old male and female C57B16 mice. MBE1 was dissolved at 50 mg/mL in DMSO followed by a […] into Kolliphor EL, followed by a 1:5 dilution into PBS to yield a 5 mg/ml MBE1 solution, (10% DMSO, 10% Kolliphor EL, 80% PBS). This was administered via IP injection at ascending doses from 12.5 to 200 mg/kg body mass in a set of 3 mice at 24 h intervals. Body condition score, food uptake, fecal/urine production, behavior and body weight were measured as toxicity readouts. Five mice were then treated every 3 days with 25 mg/kg MBE1 for 18 days.

`CCc1ccccc1C(=O)Nc1cc2c(cc1F)NC(=O)CC2` [MBE1.5, 2-ethyl-N-(7-fluoro-2-oxo-1,2,3,4-tetrahydroquinolin-6-yl)benzamide]: the “inhibition of Aldh1a2 activity (FIG. 2B)” value at Aldh1a2 is given as “does not inhibit”. Moreover, the “isoform specificity, percentage of ALDEFLUOR-positive SUM159 cells (FIG. 13C)” value on ALDH1a3 is reported as “specifically inhibits ALDH1a3 at concentrations below 10 μM”. Moreover, the “lung metastasis by BLI (FIG. 14)” value in the data set on SUM159-M1-p44 cells is reported as “caused regression of established metastatic disease”.
On to `CCc1cnccc1C(=O)Nc1cc2c(cc1F)NC(=O)CC2` [MBE1, 3-ethyl-N-(7-fluoro-2-oxo-1,2,3,4-tetrahydroquinolin-6-yl)isonicotinamide], for which the “chronic toxicity (body condition score, food uptake, fecal/urine production, behavior, body weight)” value in data set [1] (25 mg/kg every 3 days for 18 days) is reported as “Neither experiment showed any indication of either acute or chronic toxicity”. The “acute toxicity (body condition score, food uptake, fecal/urine production, behavior, body weight)” value in data set [1] (ascending doses 12.5 to 200 mg/kg at 24 h intervals) is recorded as “Neither experiment showed any indication of either acute or chronic toxicity”.

The values above are taken from patent US12162855B2, “Tetrahydroquinolino derivatives for the treatment of metastatic and chemoresistant cancers” (THE TRUSTEES OF PRINCETON UNIVERSITY, priority 2018, dated 2024).
